Measurements reported in US20030096958A1, “Human NHE2” (Pfizer Inc., priority 2001, published 2003).
pIC50: −log10 of the molar value. Like-named read-outs stand apart in the source and are kept apart here.

Key:
human NHE2-LF = target: T1, human NHE2-LF (Homo sapiens, UniProt Q9UBY0); test: FLIPR assay of Na+/H+ exchange (BCECF fluorescence recovery) in human NHE2-LF transfected PS120 cells; assay type: cell-based; conditions: read-out: IC50 Values Determined By FLIPR, NHE2-LF
T1 construct: expressed in transfected cells
T1 sequence (Q9UBY0 1-812): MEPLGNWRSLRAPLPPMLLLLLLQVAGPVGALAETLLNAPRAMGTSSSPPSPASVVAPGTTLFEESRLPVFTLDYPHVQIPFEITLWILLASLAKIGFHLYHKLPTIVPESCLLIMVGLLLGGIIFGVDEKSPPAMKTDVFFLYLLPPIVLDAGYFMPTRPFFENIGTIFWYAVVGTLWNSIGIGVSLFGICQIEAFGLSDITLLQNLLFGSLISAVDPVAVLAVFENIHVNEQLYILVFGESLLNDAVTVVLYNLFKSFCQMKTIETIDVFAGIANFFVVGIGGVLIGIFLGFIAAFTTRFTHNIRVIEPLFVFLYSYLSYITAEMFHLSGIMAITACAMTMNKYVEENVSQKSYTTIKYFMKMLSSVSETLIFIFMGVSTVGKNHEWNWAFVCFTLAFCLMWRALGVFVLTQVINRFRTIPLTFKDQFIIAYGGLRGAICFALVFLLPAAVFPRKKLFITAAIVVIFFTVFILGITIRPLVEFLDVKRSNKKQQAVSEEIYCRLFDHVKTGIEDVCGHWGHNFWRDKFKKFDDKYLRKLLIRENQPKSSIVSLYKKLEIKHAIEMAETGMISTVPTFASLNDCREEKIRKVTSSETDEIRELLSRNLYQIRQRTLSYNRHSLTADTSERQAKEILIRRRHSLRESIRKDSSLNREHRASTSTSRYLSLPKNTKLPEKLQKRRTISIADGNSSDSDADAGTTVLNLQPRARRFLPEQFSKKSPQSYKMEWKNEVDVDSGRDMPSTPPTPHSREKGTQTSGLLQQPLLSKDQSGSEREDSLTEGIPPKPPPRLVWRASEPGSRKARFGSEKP
Experimental: (§1) Human NHE2-LF and human NHE2-SF transfected PS120 cells were grown to confluence in collagen coated Fluorescent Laser Imaging Plate Reader (FLIPR) plates. To remove growth medium, the cells were washed with a 10 mM Hepes buffer, pH 7.4. A pH sensitive fluorescent dye, BCECF, AM (5 μM) (Molecular Probes, Eugene, Oreg.), was added to each well and the plates were incubated in a 37° C. humidified 5% CO2 incubator for approximately 20 minutes.
(§2) The cells were then washed with 30 mM NH4Cl buffer, pH 7.5, to remove excess dye. Plates were incubated with this buffer for approximately 45 minutes in a 37° C. humidified incubator.
5-(N,N-Hexamethylene)-amiloride ((hexa)-amiloride), amiloride, or a vehicle, was then added to each well and allowed to incubate for a minimum of 5 minutes prior to the initiation of intracellular acidification. The NH4Cl buffer was removed and the plates were placed on the FLIPR to establish a baseline fluorescence. […] (This process initiates intracellular acidification and the quenching of BCECF-related fluorescence. The resultant activation of the Na^+/H^+ exchanger and the decrease in intracellular H^+ ions produces in gradual increase in dye fluorescence towards baseline.) Changes in fluorescence were measured by the FLIPR over a period of 7 min. […]

human NHE2-SF = target: T2, human NHE2-SF (Homo sapiens, UniProt Q9UBY0); test: FLIPR assay of Na+/H+ exchange (BCECF fluorescence recovery) in human NHE2-SF transfected PS120 cells; assay type: cell-based
T2 construct: NotI/BgIII fragments including each of the entire coding regions were subcloned into pcDNA3.1(−) vectors; expressed in transfected cells; two lines tested
T2 sequence (Q9UBY0 116-812): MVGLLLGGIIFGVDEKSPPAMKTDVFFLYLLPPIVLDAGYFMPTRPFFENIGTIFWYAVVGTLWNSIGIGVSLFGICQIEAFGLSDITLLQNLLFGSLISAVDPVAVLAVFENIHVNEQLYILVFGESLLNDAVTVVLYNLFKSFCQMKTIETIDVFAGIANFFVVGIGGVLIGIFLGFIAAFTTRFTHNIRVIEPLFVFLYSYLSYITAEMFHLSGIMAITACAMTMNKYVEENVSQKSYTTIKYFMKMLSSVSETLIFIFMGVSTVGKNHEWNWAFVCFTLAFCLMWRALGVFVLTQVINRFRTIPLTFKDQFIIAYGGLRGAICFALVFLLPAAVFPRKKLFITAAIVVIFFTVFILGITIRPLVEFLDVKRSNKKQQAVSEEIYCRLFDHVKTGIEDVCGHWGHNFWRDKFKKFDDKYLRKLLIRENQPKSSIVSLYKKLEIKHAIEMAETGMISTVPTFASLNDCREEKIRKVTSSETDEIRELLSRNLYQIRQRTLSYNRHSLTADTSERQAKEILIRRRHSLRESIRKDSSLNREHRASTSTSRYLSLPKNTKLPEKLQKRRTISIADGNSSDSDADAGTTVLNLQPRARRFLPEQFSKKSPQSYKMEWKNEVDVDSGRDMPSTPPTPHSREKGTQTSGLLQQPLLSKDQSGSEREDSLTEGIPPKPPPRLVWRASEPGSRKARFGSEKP
Experimental: as §1, §2
5-(N,N-Hexamethylene)-amiloride ((hexa)-amiloride), amiloride, or a vehicle, was then added to each well and allowed to incubate for a minimum of 5 minutes prior to the initiation of intracellular acidification. The NH4Cl buffer was removed and the plates were placed on the FLIPR to establish a baseline fluorescence. A 10 mM hepes buffer, pH 7.4, containing the appropriate concentration of test compound or vehicle was added to each well of the plate. (This process initiates intracellular acidification and the quenching of BCECF-related fluorescence. The resultant activation of the Na^+/H^+ exchanger and the decrease in intracellular H^+ ions produces in gradual increase in dye fluorescence towards baseline.) Changes in fluorescence were measured by the FLIPR over a period of 7 min. Activity of the exchanger was calculated based on the percentage of fluorescence recovery as compared to control in the presence of varying concentrations of compounds (Table 2).

[1] = line #2, read-out: IC50 Values Determined By FLIPR, NHE2-SF line #2
[2] = line #, read-out: IC50 Values Determined By FLIPR, NHE2-SF line #

SMILES	pIC50 (human NHE2-LF)	pIC50 (human NHE2-SF; [1])	pIC50 (human NHE2-SF; [2])
NC(N)=NC(=O)c1nc(Cl)c(N2CCCCCC2)nc1N [(hexa)-Amiloride, 5-(N,N-Hexamethylene)-amiloride]	5.13	7.35	7.64
N=C(N)NC(=O)c1nc(Cl)c(N)nc1N [Amiloride, amiloride]	4.57	5.86	5.77
